The conditions of data set [1]: adults, orally-administered melatonin; cited from earlier work.
Another data set has as its system newborn infant. As to the kind of experiment: Manipulation of the sleep/wake circadian rhythm of a newborn infant by exogenous melatonin given orally to the nursing mother (suckled or pumped breast milk). In kind it is in vivo, human. On the procedure: The following log includes nighttime sleep data of the infant taking nothing else by mouth except thrush medication during about weeks 2-4. […] All melatonin used in this Example was an immediate-release formulation taken by the […] orally.
• Sunday (10 days post-partum, first day of exogenous melatonin administration in breast milk): • At 20:50 […] took 3 mg melatonin orally. At 21:20 breast-fed baby. […] Monday: • At 19:45, […] took 1.05 mg. […] Tuesday: • At 20:30, […] took 0.9 mg and fed at 9. […] Wednesday: • At 20:45, […] took 3 mg. […] Thursday. • […] took 3 mg at 20:45. […] Week 2 Sunday. • […] took 3 mg at 20:30 but ate immediately after. […] Tuesday: • […] took 3 mg at 20:30. […] Wednesday • […] took 3 mg at 20:30. […] Friday • […] took 3 mg at 20:30. […] Saturday: • […] took 3 mg at 20:30. […] Week 3 Sunday: • […] took 3 mg at 15:00. […] Monday • […] took 3 mg at 17:20. […] Tuesday: • […] took 3 mg at 17:00. […] Wednesday: • […] took 1.8 mg at 17:45. […] Thursday: • […] took 3 mg at 17:00. […] Friday: • […] took 3 mg at 20:30. […] Saturday: • […] took 2 mg at 19:15.

Where [2] appears, read: same maternal dosing, infant fed by breast milk.

“Also recorded” adds a separate entry of the source.

In the case of `COc1ccc2[nH]cc(CCNC(C)=O)c2c1` [melatonin, N-acetyl-5-methoxytryptamine], the melatonin bioavailability in data set [1] is recorded as 1-15%. For the same molecule, the “infant sleep period after first feeding with exogenous melatonin in breast milk” value with newborn infant (10 days post-partum, mother took 3 mg orally at 20:50, baby breast-fed at 21:20) is “slept between 22:00 and 04:00”. Besides, in the data set on newborn infant (Week 5 Monday, parent took 3 mg at 17:00), the “improvement of colic versus its worst” value is on record as “about 40%”. The “sleep of mother and newborn” value with newborn infant (parent took 1.8-12 mg (usually 3 mg) in the evening, sometimes 1-2 mg in the middle of the night or 0.5 mg towards end of night, immediate-release, oral, infant fed by suckling or pumped breast milk) was “better sleep for both mother and newborn”. For the same molecule, in the data set with newborn infant (setting [2]), the “actual breast-feeding time during the night” value was “no reduction”; the “development of the infant's independent ability to synchronize to the ambient light/dark cycle” value was “appeared to accelerate development; also recorded: caused early synchronization”; the “evening/nighttime colic in the infant” value was “less evening/nighttime colic”; the “weight gain in the baby” value was “steady weight gain; also recorded: excellent on melatonin, better than before melatonin”.

The values above are taken from US20080058405A1, “REPLICATING MELATONIN SIGNALING IN A FETUS, NEWBORN OR SUCKLING INFANT” (OREGON HEALTH & SCIENCE UNIVERSITY, priority 2006, published 2008).
